Measured values from US20160108381A1, “DNA POLYMERASES AND MUTANTS THEREOF” (LIFE TECHNOLOGIES CORPORATION, priority 2001, published 2016).

Legend:
[1] = biological target: T1, Caldicellulosiruptor sp. strain Rt69B.1 (RT69B) DNA polymerase, SEQ ID NO:19 (Caldicellulosiruptor saccharolyticus, UniProt Q6X9R7); test: Steady-state kinetics, DNA- and RNA-dependent polymerase activity; type: biochemical; settings: Table 40; dTTP; 72 °C
T1 sequence (Q6X9R7 with tags, fused parts or gaps): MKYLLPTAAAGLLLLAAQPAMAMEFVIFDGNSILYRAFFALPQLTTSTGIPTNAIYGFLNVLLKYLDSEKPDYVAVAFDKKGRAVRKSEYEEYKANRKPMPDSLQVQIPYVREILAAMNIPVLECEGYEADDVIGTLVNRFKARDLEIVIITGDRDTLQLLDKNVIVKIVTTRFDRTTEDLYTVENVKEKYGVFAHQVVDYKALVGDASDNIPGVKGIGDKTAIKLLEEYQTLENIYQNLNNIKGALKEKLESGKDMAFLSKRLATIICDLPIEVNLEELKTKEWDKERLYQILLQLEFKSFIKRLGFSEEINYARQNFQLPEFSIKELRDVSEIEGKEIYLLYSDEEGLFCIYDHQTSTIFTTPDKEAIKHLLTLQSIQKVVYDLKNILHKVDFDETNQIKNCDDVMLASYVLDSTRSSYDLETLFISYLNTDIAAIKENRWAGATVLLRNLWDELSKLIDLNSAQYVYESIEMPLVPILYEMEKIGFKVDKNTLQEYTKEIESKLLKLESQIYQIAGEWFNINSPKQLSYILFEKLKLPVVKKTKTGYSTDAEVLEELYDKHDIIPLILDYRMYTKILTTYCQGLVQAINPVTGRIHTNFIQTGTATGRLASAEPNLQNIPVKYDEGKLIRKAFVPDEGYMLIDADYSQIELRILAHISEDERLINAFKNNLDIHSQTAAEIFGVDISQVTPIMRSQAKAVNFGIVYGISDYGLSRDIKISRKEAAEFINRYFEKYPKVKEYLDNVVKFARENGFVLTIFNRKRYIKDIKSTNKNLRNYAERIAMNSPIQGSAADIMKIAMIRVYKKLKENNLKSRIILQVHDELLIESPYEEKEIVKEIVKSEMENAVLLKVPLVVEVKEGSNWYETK
Experimental: (§1) Subcloning of genes for Tok13B, Tok7B, and Rt69B. Subcloning of the genes for Tok13B, Tok7B, and Rt69B DNA polymerase was carried out to remove the pelB leader sequence derived from pET26B. This reduced proteolytic degradation of the DNA polymerases from these genes observed in E. coli when the pelB leader was present. Each DNA polymerase gene was removed from pET26B by restriction digestion of the plasmid DNA with NcoI, which cut at the 5′ end of the gene, and BamHI, which cut downstream of the translation stop codon at the 3′ end of the gene. The NcoI-BamHI fragment was ligated into the NcoI and BamHI sites of expression vector pET14B (Novagen Inc., Madison, Wis.). The recombinant plasmids were transformed into the E. coli expression host BL21-AI (Invitrogen Corporation, Carlsbad, Calif.).
(§2) Purification of CA2, B.EA1, Rt41A, Dth, Tok13B, Tok7B, and Rt69B DNA polymerase. E. coli cells (BL21SI, Invitrogen Corporation, Carlsbad, Calif.) bearing the plasmid pET26B with the gene for CA2, B.EA1, Rt41A, or Dth DNA polymerase were grown in 2.8-1 Fembach flasks in LB broth containing no salt and 50 μg/ml kanamycin at 37° C. After the culture reached an A590 of 1.2, expression of DNA polymerase was induced with 0.3 M NaCl for 3 hr. Cells were harvested by centrifugation and stored at −70° C. […]

[2] = biological target: T2, Caldicellulosiruptor sp. strain Tok13B.1 (Tok13B) DNA polymerase, SEQ ID NO:17 (Caldicellulosiruptor saccharolyticus, UniProt Q6X9R9); test: as above; type: biochemical; settings: Table 40; dTTP; 72 °C
T2 sequence (Q6X9R9 with tags, fused parts or gaps): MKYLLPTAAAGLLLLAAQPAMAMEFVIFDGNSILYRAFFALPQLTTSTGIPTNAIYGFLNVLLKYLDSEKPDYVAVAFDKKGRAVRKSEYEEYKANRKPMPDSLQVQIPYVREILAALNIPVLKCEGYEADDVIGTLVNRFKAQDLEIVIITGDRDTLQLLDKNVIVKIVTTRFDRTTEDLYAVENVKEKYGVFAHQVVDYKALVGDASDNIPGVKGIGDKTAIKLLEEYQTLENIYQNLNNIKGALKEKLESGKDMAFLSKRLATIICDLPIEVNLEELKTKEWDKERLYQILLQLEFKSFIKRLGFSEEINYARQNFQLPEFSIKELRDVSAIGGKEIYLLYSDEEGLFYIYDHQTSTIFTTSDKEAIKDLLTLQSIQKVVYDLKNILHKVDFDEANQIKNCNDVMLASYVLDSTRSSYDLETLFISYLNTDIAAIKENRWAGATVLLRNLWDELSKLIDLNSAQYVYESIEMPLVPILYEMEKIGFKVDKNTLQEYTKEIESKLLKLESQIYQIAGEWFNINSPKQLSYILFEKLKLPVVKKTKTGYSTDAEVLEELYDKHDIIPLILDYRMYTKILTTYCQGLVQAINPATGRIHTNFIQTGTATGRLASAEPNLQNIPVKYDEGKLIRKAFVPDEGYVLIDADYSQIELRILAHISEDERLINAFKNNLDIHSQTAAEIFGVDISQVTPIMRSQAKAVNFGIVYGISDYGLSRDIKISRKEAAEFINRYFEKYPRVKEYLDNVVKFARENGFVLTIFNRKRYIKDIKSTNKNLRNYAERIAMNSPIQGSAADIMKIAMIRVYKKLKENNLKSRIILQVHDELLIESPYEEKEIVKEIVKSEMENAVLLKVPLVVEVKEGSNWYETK
Experimental: as §1, §2

`Cc1cn([C@H]2C[C@H](O)[C@@H](COP(=O)(O)OP(=O)(O)OP(=O)(O)O)O2)c(=O)[nH]c1=O` [dTTP] was tested, and the “kCAT Ratio (RNA/DNA)” value [1] was 0.03 and the “kCAT Ratio (RNA/DNA)” value [2] was 0.03.
